In patent US20180072997A1, “INHIBITORS OF HUMAN IMMUNODEFICIENCY VIRUS REPLICATION” (ViiV HEATHCARE UK (NO.5) LIMITED, priority 2015, published 2018):

What was measured:
[1] = test system: recombinant NL4-3 virus (Renilla luciferase in nef) in MT-2 cells; assay: whole plant or invertebrate; type: cell-based, HIV; settings: Renilla, NL43, MT-2 cells infected for 4-5 days with recombinant NL4-3 Renilla luciferase virus; luciferase activity
Experimental: HIV cell culture assay—MT-2 cells, 293T cells and the proviral DNA clone of NL4-3 virus were obtained from the NIH AIDS Research and Reference Reagent Program. MT-2 cells were propagated in RPMI 1640 media supplemented with 10% heat inactivated fetal bovine serum (FBS), 100 μg/ml penicillin G and up to 100 units/mL streptomycin. The 293T cells were propagated in DMEM media supplemented with 10% heat inactivated FBS, 100 μg/mL penicillin G and 100 μg/mL streptomycin. A recombinant NL4-3 proviral clone, in which a section of the nef gene was replaced with the Renilla luciferase gene, was used to make the reference virus used in these studies. The recombinant virus was prepared through transfection of the recombinant NL4-3 proviral clone into 293T cells using Transit-293 Transfection Reagent from Mirus Bio LLC (Madison, Wis.). Supernatent was harvested after 2-3 days and the amount of virus present was titered in MT-2 cells using luciferase enzyme activity as a marker by measuring luciferase enzyme activity. Luciferase was quantitated using the EnduRen Live Cell Substrate from Promega (Madison, Wis.). Antiviral activities of compounds toward the recombinant virus were quantified by measuring luciferase activity in MT-2 cells infected for 4-5 days with the recombinant virus in the presence of serial dilutions of the compound.
(Johnson V A, Byington R T. Infectivity Assay. In Techniques in HIV Research. ed. Aldovini A, Walker BD. 71-76. New York: Stockton Press.1990).

[2] = Compound cytotoxicity, XTT-based colorimetric assay; type: cell-based; settings: human, uninfected MT2 cells, day 4, XTT
Experimental: Compound cytotoxicity and the corresponding CC50 values were determined using the same protocol as described in the antiviral assay except that uninfected cells were used. Cytotoxicity was assessed on day 4 in uninfected MT2 cells by using a XTT (2,3-bis[2-Methoxy-4-nitro-5-sulfophenyl]-2H-tetrazolium-5-carboxyanilide inner salt)-based colorimetric assay (Sigma-Aldrich, St Louis, Mo.).

## COc1ccc(N(C)C(=O)[C@H](Cc2ccccc2)NC(=O)CCCC(=O)N[C@@H](Cc2ccccc2)C(=O)N(C)c2ccc(OC)cc2)cc1 [Example 22]
[1]
  EC50: 1.31 µM
[2]
  CC50 at 4 days: 21.1 µM

## COc1ccc(N(C)C(=O)[C@H](Cc2ccccc2)NC(=O)NC(=O)N[C@@H](Cc2ccccc2)C(=O)N(C)c2ccc(OC)cc2)cc1 [Example 10]
[1]
  EC50: 4.71 µM
[2]
  CC50 at 4 days: 10.5 µM

## COc1ccc(N(C)C(=O)[C@H](Cc2ccccc2)NC(=O)c2cccc(C(=O)N[C@@H](Cc3ccccc3)C(=O)N(C)c3ccc(OC)cc3)n2)cc1 [Example 39]
[1]
  EC50: 0.95 µM
[2]
  CC50 at 4 days: ≥ 33.3 µM

## COc1ccc(N(C)C(=O)[C@H](Cc2ccccc2)NS(=O)(=O)CCCS(=O)(=O)N[C@@H](Cc2ccccc2)C(=O)N(C)c2ccc(OC)cc2)cc1 [Example 28]
[1]
  EC50: 1.4 µM
[2]
  CC50 at 4 days: 30 µM

## COc1ccc(-n2ccnc2C(Cc2ccccc2)NC(=O)CN2c3ccccc3N(CC(=O)N[C@@H](Cc3ccccc3)c3nccn3-c3ccc(OC)cc3)S2(=O)=O)cc1 (stereo partly shown) [Example 166]
[1]
  EC50: 6.7 µM
[2]
  CC50 at 4 days: ≥ 100 µM

## C=CCN(C(=O)[C@H](Cc1cc(F)cc(F)c1)NS(=O)(=O)c1cccc(S(=O)(=O)N[C@@H](Cc2cc(F)cc(F)c2)C(=O)N(CC=C)c2ccc(OC)cc2)c1)c1ccc(OC)cc1 [Example 187]
[1]
  EC50: 3.78 µM
[2]
  CC50 at 4 days: ≥ 100 µM

## COc1ccc(N(C)C(=O)[C@H](Cc2ccccc2)NC(=O)Cn2c(=O)n(CC(=O)N[C@@H](Cc3ccccc3)C(=O)N(C)c3ccc(OC)cc3)c3cc(N)ccc32)cc1 [Example 90]
[1]
  EC50: 0.34 µM
[2]
  CC50 at 4 days: 22.7 µM

## COc1ccc(N(C)C(=O)[C@H](Cc2cc(F)cc(F)c2)NC(=O)c2cccc(C(=O)N[C@@H](Cc3cc(F)cc(F)c3)C(=O)N(C)c3ccc(OC)cc3)c2)cc1 [Example 49]
[1]
  EC50: 0.04 µM
[2]
  CC50 at 4 days: 10.8 µM

## COc1ccc(N(C)C(=O)[C@H](Cc2ccccc2)NC(=O)CS(=O)(=O)N[C@@H](Cc2ccccc2)C(=O)N(C)c2ccc(OC)cc2)cc1 [Example 63]
[1]
  EC50: 1.09 µM
[2]
  CC50 at 4 days: 30.2 µM

## C=CCCN(C(=O)[C@H](Cc1cc(F)cc(F)c1)NC(=O)NS(=O)(=O)N[C@@H](Cc1cc(F)cc(F)c1)C(=O)N(CCC=C)c1ccc(OC)cc1)c1ccc(OC)cc1 [Example 121]
[1]
  EC50: 0.73 µM
[2]
  CC50 at 4 days: 18.8 µM

## COc1ccc(N(C)C(=O)[C@H](Cc2ccccc2)NC(=O)[C@@H]2CC[C@H](C(=O)N[C@@H](Cc3ccccc3)C(=O)N(C)c3ccc(OC)cc3)C2)cc1 [Example 52]
[1]
  EC50: 1.14 µM
[2]
  CC50 at 4 days: 22.6 µM

## COc1ccc(N(C)C(=O)[C@H](Cc2cc(F)cc(F)c2)NC(=O)Cn2c(=O)c3ccccc3n(CC(=O)N[C@@H](Cc3cc(F)cc(F)c3)C(=O)N(C)c3ccc(OC)cc3)c2=O)cc1 [Example 101]
[1]
  EC50: 0.03 µM
[2]
  CC50 at 4 days: ≥ 100 µM

## CN(C(=O)[C@H](Cc1ccccc1)NC(=O)NS(=O)(=O)N[C@@H](Cc1ccccc1)C(=O)N(C)c1ccc2scnc2c1)c1ccc2scnc2c1 [Example 13]
[1]
  EC50: 0.08 µM
[2]
  CC50 at 4 days: ≥ 100 µM

## CN(C(=O)[C@H](Cc1cc(F)cc(F)c1)NC(=O)NS(=O)(=O)N[C@@H](Cc1cc(F)cc(F)c1)C(=O)N(C)c1ccc(OC(F)F)nc1)c1ccc(OC(F)F)nc1 [Example 214]
[1]
  EC50: 0.01 µM
[2]
  CC50 at 4 days: 43.8 µM

## COc1ccc(N(C)C(=O)[C@H](Cc2ccccc2)NC(=O)c2cc(C(=O)N[C@@H](Cc3ccccc3)C(=O)N(C)c3ccc(OC)cc3)cc(C(C)(C)C)c2)cc1 [Example 103]
[1]
  EC50: 0.15 µM
[2]
  CC50 at 4 days: ≥ 33.3 µM

## COc1ccc(N(C)C(=O)[C@H](Cc2cc(F)cc(F)c2)NC(=O)CN2c3ccccc3N(CC(=O)N[C@@H](Cc3cc(F)cc(F)c3)C(=O)N(C)c3ccc(OC)cc3)S2(=O)=O)cc1 [Example 34]
[1]
  EC50: 0.01 µM
[2]
  CC50 at 4 days: ≥ 100 µM

## CN(C(=O)[C@H](Cc1cc(F)cc(F)c1)NC(=O)NS(=O)(=O)N[C@@H](Cc1cc(F)cc(F)c1)C(=O)N(C)c1ccc2c(c1)ncn2C)c1ccc2c(c1)ncn2C [Example 186]
[1]
  EC50: 6.15 µM
[2]
  CC50 at 4 days: ≥ 100 µM

## CN(C(=O)[C@H](Cc1cc(F)cc(F)c1)NC(=O)NS(=O)(=O)N[C@@H](Cc1cc(F)cc(F)c1)C(=O)N(C)c1ccc2scnc2c1)c1ccc2scnc2c1 [Example 18]
[1]
  EC50: 0.03 µM
[2]
  CC50 at 4 days: 85.3 µM

## COc1ccc(N(C)C(=O)[C@H](Cc2ccccc2)NC(=O)NS(=O)(=O)N[C@@H](Cc2ccccc2)c2nc(C)no2)cc1 [Example 7]
[1]
  EC50: 3.76 µM
[2]
  CC50 at 4 days: ≥ 100 µM

## CN(C(=O)[C@H](Cc1ccccc1)NC(=O)NS(=O)(=O)N[C@@H](Cc1ccccc1)C(=O)N(C)c1ccc(C(C)(C)C)cc1)c1ccc(C(C)(C)C)cc1 [Example 167]
[1]
  EC50: 0.27 µM
[2]
  CC50 at 4 days: 26.5 µM

## CN(C(=O)[C@H](Cc1cc(F)cc(F)c1)NC(=O)NS(=O)(=O)N[C@@H](Cc1cc(F)cc(F)c1)C(=O)N(C)c1ccc(OC(F)(F)F)cc1)c1ccc(OC(F)(F)F)cc1 [Example 189]
[1]
  EC50: 0.01 µM
[2]
  CC50 at 4 days: 8.2 µM

## COc1ccc(N(C)C(=O)[C@H](Cc2ccccc2)NC(=O)NS(=O)(=O)N[C@@H](Cc2ccccc2)c2nnc(SC)o2)cc1 [Example 6]
[1]
  EC50: 6.78 µM
[2]
  CC50 at 4 days: ≥ 100 µM

## COc1ccc(N(C)C(=O)[C@H](Cc2ccccc2)NC(=O)CCN2CCN(CCC(=O)N[C@@H](Cc3ccccc3)C(=O)N(C)c3ccc(OC)cc3)CC2)cc1 [Example 40]
[1]
  EC50: 0.31 µM
[2]
  CC50 at 4 days: 36 µM

## COc1ccc(N(C)C(=O)[C@H](Cc2ccccc2)NC(=O)CN2c3ccccc3N(CC(=O)N[C@@H](Cc3ccccc3)C(=O)N(C)c3ccc(OC)cc3)S2(=O)=O)cc1 [Example 27]
[1]
  EC50: 0.04 µM
[2]
  CC50 at 4 days: ≥ 100 µM

## CCN(C(=O)[C@H](Cc1cc(F)cc(F)c1)NC(=O)CN1c2ccccc2N(CC(=O)N[C@@H](Cc2cc(F)cc(F)c2)C(=O)N(CC)c2ccc3oc(=O)n(CC)c3c2)S1(=O)=O)c1ccc2oc(=O)n(CC)c2c1 [Example 155]
[1]
  EC50: 2.13 µM
[2]
  CC50 at 4 days: ≥ 33.3 µM

## COc1ccc(N(CCF)C(=O)[C@H](Cc2cc(F)cc(F)c2)NC(=O)CN2c3ccccc3N(CC(=O)N[C@@H](Cc3cc(F)cc(F)c3)C(=O)N(CCF)c3ccc(OC)cc3)S2(=O)=O)cc1 [Example 122]
[1]
  EC50: 0.09 µM
[2]
  CC50 at 4 days: ≥ 100 µM

## COc1ccc(N(C)C(=O)[C@H](Cc2ccccc2)Nc2ncnc(N[C@@H](Cc3ccccc3)C(=O)N(C)c3ccc(OC)cc3)n2)cc1 [Example 109]
[1]
  EC50: 6.87 µM
[2]
  CC50 at 4 days: 65.4 µM

## CCN(C(=O)[C@H](Cc1cc(F)cc(F)c1)NC(=O)NS(=O)(=O)N[C@@H](Cc1cc(F)cc(F)c1)C(=O)N(CC)c1ccc(NC(=O)OC)cc1)c1ccc(NC(=O)OC)cc1 [Example 149]
[1]
  EC50: 1.64 µM
[2]
  CC50 at 4 days: 79.5 µM

## CN(C(=O)[C@H](Cc1cc(F)cc(F)c1)NC(=O)NS(=O)(=O)N[C@@H](Cc1cc(F)cc(F)c1)C(=O)N(C)c1ccccc1)c1ccccc1 [Example 86]
[1]
  EC50: 0.09 µM
[2]
  CC50 at 4 days: 24.5 µM

## CN(C(=O)[C@H](Cc1cc(F)cc(F)c1)NC(=O)CN1c2ccccc2N(CC(=O)N[C@@H](Cc2cc(F)cc(F)c2)C(=O)N(C)c2ccc3scnc3c2)S1(=O)=O)c1ccc2scnc2c1 [Example 118]
[2]
  CC50 at 4 days: ≥ 100 µM

## CCc1ccc(N(C)C(=O)[C@H](Cc2cc(F)cc(F)c2)NC(=O)NS(=O)(=O)N[C@@H](Cc2cc(F)cc(F)c2)C(=O)N(C)c2ccc(CC)cc2)cc1 [Example 173]
[2]
  CC50 at 4 days: 25.5 µM

## CN(C(=O)[C@H](Cc1cc(F)cc(F)c1)NC(=O)c1c(F)c(F)c(F)c(C(=O)N[C@@H](Cc2cc(F)cc(F)c2)C(=O)N(C)c2ccc3scnc3c2)c1F)c1ccc2scnc2c1 [Example 81]
[2]
  CC50 at 4 days: 2.8 µM
